Results from PubChem BioAssay (NCI).
Several values for one entry are separate records, joined by “and”; a condition that tells them apart may be missing. Equal values may be shown once.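 Where inhibition never reached the appropriate level, the endpoint shown equals the highest concentration tested. Otherwise, values were interpolated linearly from a five-concentration, 48-hour dose response in 96-well plates. GI50 is the concentration that inhibits growth by half. At the TGI there is no net growth.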

Columns and labels:
Assay in all cases: growth of human tumour cells (NCI), 48 h
HT29 colon = test system: HT29 colon
KM12 colon = test system: KM12 colon
HS 578T breast = test system: HS 578T breast
PC-3 prostate = test system: PC-3 prostate
HCC-2998 colon = test system: HCC-2998 colon
MALME-3M melanoma = test system: MALME-3M melanoma
SNB-19 CNS = test system: SNB-19 CNS
HOP-92 NSCLC = test system: HOP-92 NSCLC
U251 CNS = test system: U251 CNS
NCI-H226 lung = test system: NCI-H226 lung
LOX IMVI melanoma = test system: LOX IMVI melanoma
BT-549 breast = test system: BT-549 breast
SW-620 colon = test system: SW-620 colon
OVCAR-8 ovarian = test system: OVCAR-8 ovarian
MDA-N = test system: MDA-N
RPMI-8226 leukemia = test system: RPMI-8226 leukemia

## COc1cc(C(CN)N(C)C)cc(OC)c1OC (stereo not given)
HT29 colon
  TGI: > 100 µM
KM12 colon
  TGI: > 100 µM
HS 578T breast
  TGI: > 100 µM
PC-3 prostate
  TGI: > 100 µM
HCC-2998 colon
  TGI: > 100 µM
MALME-3M melanoma
  TGI: > 100 µM
SNB-19 CNS
  TGI: > 100 µM
HOP-92 NSCLC
  TGI: > 100 µM
U251 CNS
  TGI: > 100 µM
NCI-H226 lung
  TGI: 71.6 µM
LOX IMVI melanoma
  TGI: > 100 µM
BT-549 breast
  TGI: > 100 µM
SW-620 colon
  TGI: > 100 µM
OVCAR-8 ovarian
  TGI: > 100 µM
MDA-N
  TGI: > 100 µM

## O=c1cc2oc3ccc4ccccc4c3cc-2c(=O)[nH]1
HT29 colon
  TGI: 32.2 µM
KM12 colon
  TGI: 42.7 µM
HS 578T breast
  TGI: 58.4 µM
PC-3 prostate
  TGI: 22.4 µM
HCC-2998 colon
  TGI: 31.8 µM
RPMI-8226 leukemia
  TGI: > 100 µM
MALME-3M melanoma
  TGI: 30.3 µM
SNB-19 CNS
  TGI: 27.2 µM
U251 CNS
  TGI: 22 µM
LOX IMVI melanoma
  TGI: 21 µM
BT-549 breast
  TGI: 11.2 µM
SW-620 colon
  TGI: 5.3 µM
OVCAR-8 ovarian
  TGI: 4.53 µM
MDA-N
  TGI: 23.8 µM

## C[n+]1ccccc1/C=C/c1ccc2c(c1)OCO2
HT29 colon
  TGI: > 10 µM
KM12 colon
  TGI: > 10 µM
HS 578T breast
  TGI: > 10 µM
PC-3 prostate
  TGI: > 10 µM
HCC-2998 colon
  TGI: > 10 µM
RPMI-8226 leukemia
  TGI: > 10 µM
MALME-3M melanoma
  TGI: > 10 µM
SNB-19 CNS
  TGI: > 10 µM
U251 CNS
  TGI: > 10 µM
NCI-H226 lung
  TGI: > 10 µM
LOX IMVI melanoma
  TGI: > 10 µM
BT-549 breast
  TGI: > 10 µM
SW-620 colon
  TGI: > 10 µM
OVCAR-8 ovarian
  TGI: > 10 µM
MDA-N
  TGI: > 10 µM

## COc1ccc(-c2c(N)n(-c3cc(OC)cc(OC)c3)c(=O)c3cc([N+](=O)[O-])ccc23)cc1
HT29 colon
  TGI: > 100 µM
KM12 colon
  TGI: > 100 µM
HS 578T breast
  TGI: > 100 µM
PC-3 prostate
  TGI: > 100 µM
HCC-2998 colon
  TGI: > 100 µM
RPMI-8226 leukemia
  TGI: > 100 µM
MALME-3M melanoma
  TGI: > 100 µM
SNB-19 CNS
  TGI: 99.5 µM
HOP-92 NSCLC
  TGI: 34.1 µM
U251 CNS
  TGI: > 100 µM
NCI-H226 lung
  TGI: > 100 µM
LOX IMVI melanoma
  TGI: > 100 µM
BT-549 breast
  TGI: > 93.6 µM
SW-620 colon
  TGI: > 100 µM
OVCAR-8 ovarian
  TGI: > 100 µM
MDA-N
  TGI: > 100 µM

## CC1(C)C2CCC1(C)C(NC(=O)CCN1CCOCC1)C2 (stereo not given)
HT29 colon
  TGI: > 100 µM
KM12 colon
  TGI: > 100 µM
HS 578T breast
  TGI: > 100 µM
PC-3 prostate
  TGI: > 100 µM
HCC-2998 colon
  TGI: > 100 µM
MALME-3M melanoma
  TGI: > 100 µM
SNB-19 CNS
  TGI: > 100 µM
HOP-92 NSCLC
  TGI: > 100 µM
U251 CNS
  TGI: > 100 µM
NCI-H226 lung
  TGI: > 100 µM
BT-549 breast
  TGI: > 100 µM
SW-620 colon
  TGI: > 100 µM
OVCAR-8 ovarian
  TGI: > 100 µM
MDA-N
  TGI: > 100 µM

## COC(=O)c1c(C)cccc1C1CN=NC12Cc1c(C)cccc1C2=O (stereo not given)
HT29 colon
  TGI: > 100 µM
KM12 colon
  TGI: > 100 µM
HS 578T breast
  TGI: > 100 µM
PC-3 prostate
  TGI: > 100 µM
HCC-2998 colon
  TGI: > 100 µM
RPMI-8226 leukemia
  TGI: > 100 µM
MALME-3M melanoma
  TGI: > 100 µM
SNB-19 CNS
  TGI: > 100 µM
HOP-92 NSCLC
  TGI: > 100 µM
U251 CNS
  TGI: > 100 µM
NCI-H226 lung
  TGI: > 100 µM
LOX IMVI melanoma
  TGI: > 100 µM
BT-549 breast
  TGI: > 100 µM
SW-620 colon
  TGI: > 100 µM
OVCAR-8 ovarian
  TGI: > 100 µM
MDA-N
  TGI: > 100 µM

## COc1cccc(N2CCc3c(C)c(C#N)c4nc5ccccc5n4c32)c1
HT29 colon
  TGI: > 100 µM
HS 578T breast
  TGI: 60.7 µM
PC-3 prostate
  TGI: > 100 µM
HCC-2998 colon
  TGI: > 100 µM
MALME-3M melanoma
  TGI: > 100 µM
SNB-19 CNS
  TGI: > 100 µM
HOP-92 NSCLC
  TGI: > 100 µM
U251 CNS
  TGI: > 100 µM
NCI-H226 lung
  TGI: > 100 µM
LOX IMVI melanoma
  TGI: > 100 µM
BT-549 breast
  TGI: > 100 µM
SW-620 colon
  TGI: > 100 µM
OVCAR-8 ovarian
  TGI: > 100 µM
MDA-N
  TGI: > 100 µM

## CNNC1=NS(=O)(=O)c2cc(C(=O)OC)c(Cl)cc2S1
HT29 colon
  TGI: > 10 µM
KM12 colon
  TGI: > 10 µM
HS 578T breast
  TGI: > 10 µM
PC-3 prostate
  TGI: > 10 µM
HCC-2998 colon
  TGI: > 10 µM
RPMI-8226 leukemia
  TGI: > 10 µM
MALME-3M melanoma
  TGI: > 10 µM
SNB-19 CNS
  TGI: > 10 µM
U251 CNS
  TGI: > 10 µM
NCI-H226 lung
  TGI: > 10 µM
LOX IMVI melanoma
  TGI: > 10 µM
BT-549 breast
  TGI: > 10 µM
SW-620 colon
  TGI: > 10 µM
OVCAR-8 ovarian
  TGI: > 10 µM
MDA-N
  TGI: > 10 µM

## COc1ccc(-n2c(C)nc3ccc(N=Cc4ccccc4)cc3c2=O)cc1
HT29 colon
  TGI: > 100 µM
KM12 colon
  TGI: > 100 µM
HS 578T breast
  TGI: > 100 µM
PC-3 prostate
  TGI: > 100 µM
HCC-2998 colon
  TGI: > 100 µM
RPMI-8226 leukemia
  TGI: > 100 µM
MALME-3M melanoma
  TGI: > 100 µM
SNB-19 CNS
  TGI: > 100 µM
U251 CNS
  TGI: > 100 µM
NCI-H226 lung
  TGI: > 100 µM
LOX IMVI melanoma
  TGI: > 100 µM
BT-549 breast
  TGI: > 100 µM
SW-620 colon
  TGI: > 100 µM
OVCAR-8 ovarian
  TGI: > 100 µM
MDA-N
  TGI: > 100 µM

## CN(C)CCNc1ccc2nnn3c4ccc(Cl)cc4c(=O)c1c23
HT29 colon
  TGI: 15.9 µM
KM12 colon
  TGI: 20.8 µM
HS 578T breast
  TGI: 13.5 µM
PC-3 prostate
  TGI: 13.6 µM
HCC-2998 colon
  TGI: 23.4 µM
RPMI-8226 leukemia
  TGI: 25.4 µM
MALME-3M melanoma
  TGI: 17 µM
SNB-19 CNS
  TGI: 26.7 µM
HOP-92 NSCLC
  TGI: 14.2 µM
U251 CNS
  TGI: 6.72 µM
NCI-H226 lung
  TGI: 5.31 µM
LOX IMVI melanoma
  TGI: 9.66 µM
BT-549 breast
  TGI: 34.8 µM
SW-620 colon
  TGI: 18 µM
OVCAR-8 ovarian
  TGI: 16.9 µM
MDA-N
  TGI: 16.9 µM

## O=C1c2ccccc2C(=O)c2[nH]c(=O)c(/C=N/Nc3ccc([N+](=O)[O-])cc3)nc21
HT29 colon
  TGI: > 21.5 µM
KM12 colon
  TGI: > 100 µM
HS 578T breast
  TGI: 21.1 µM
PC-3 prostate
  TGI: > 57.9 µM
HCC-2998 colon
  TGI: 4.78 µM
RPMI-8226 leukemia
  TGI: > 61.2 µM
MALME-3M melanoma
  TGI: 2.78 µM
SNB-19 CNS
  TGI: > 100 µM
HOP-92 NSCLC
  TGI: 38 µM
U251 CNS
  TGI: > 37.6 µM
NCI-H226 lung
  TGI: 4.45 µM
LOX IMVI melanoma
  TGI: > 39.2 µM
BT-549 breast
  TGI: 20.4 µM
SW-620 colon
  TGI: > 45.4 µM
OVCAR-8 ovarian
  TGI: > 50.7 µM
MDA-N
  TGI: 2.63 µM

## CCOc1ccccc1N=NC1C(=O)N(C(=O)CC(=O)Nc2ccccc2Cl)N=C1C (stereo not given)
HT29 colon
  TGI: > 100 µM
KM12 colon
  TGI: > 100 µM
HS 578T breast
  TGI: 89 µM
PC-3 prostate
  TGI: > 100 µM
HCC-2998 colon
  TGI: > 100 µM
RPMI-8226 leukemia
  TGI: > 100 µM
MALME-3M melanoma
  TGI: > 100 µM
HOP-92 NSCLC
  TGI: 70 µM
U251 CNS
  TGI: > 100 µM
NCI-H226 lung
  TGI: > 100 µM
LOX IMVI melanoma
  TGI: > 100 µM
BT-549 breast
  TGI: > 100 µM
SW-620 colon
  TGI: > 100 µM
OVCAR-8 ovarian
  TGI: > 100 µM
MDA-N
  TGI: > 100 µM

## CC(=O)OCC1OC(Sc2nc(-c3ccc(C)cc3)c(C#N)c(=O)n2C2OC(COC(C)=O)C(OC(C)=O)C(OC(C)=O)C2OC(C)=O)C(OC(C)=O)C(OC(C)=O)C1OC(C)=O (stereo not given)
HT29 colon
  TGI: > 100 µM
KM12 colon
  GI50: > 100 µM and 38.7 µM
  TGI: > 100 µM
HS 578T breast
  TGI: > 100 µM
PC-3 prostate
  TGI: > 100 µM
HCC-2998 colon
  TGI: > 100 µM and 33.2 µM
RPMI-8226 leukemia
  TGI: > 100 µM
SNB-19 CNS
  TGI: > 100 µM
HOP-92 NSCLC
  GI50: > 100 µM and 41.7 µM
  TGI: > 100 µM
U251 CNS
  TGI: > 100 µM
NCI-H226 lung
  TGI: > 100 µM
LOX IMVI melanoma
  TGI: > 100 µM
BT-549 breast
  TGI: > 100 µM
SW-620 colon
  TGI: > 100 µM
OVCAR-8 ovarian
  TGI: > 100 µM
MDA-N
  GI50: > 100 µM and 10.1 µM
  TGI: > 100 µM and 64.6 µM

## COc1ccc(C(F)(F)F)cc1NC(=O)O/N=C(/Cl)C(C)C
HT29 colon
  TGI: 53.3 µM
KM12 colon
  TGI: > 60.2 µM
HS 578T breast
  TGI: > 78.3 µM
PC-3 prostate
  TGI: 34.5 µM
HCC-2998 colon
  TGI: 39.3 µM
RPMI-8226 leukemia
  TGI: 6.05 µM
MALME-3M melanoma
  TGI: 24.7 µM
SNB-19 CNS
  TGI: 42.6 µM
HOP-92 NSCLC
  TGI: 18.9 µM
U251 CNS
  TGI: > 58.2 µM
NCI-H226 lung
  TGI: 35.6 µM
LOX IMVI melanoma
  TGI: 13.2 µM
BT-549 breast
  TGI: 41.3 µM
SW-620 colon
  TGI: > 21.4 µM
OVCAR-8 ovarian
  TGI: 41.1 µM
MDA-N
  TGI: 32.4 µM
